How the values were obtained:
Type in all cases: in vivo
[1] = tested on: winter wheat (Triticum aestivum); test: Test D pre-/postemergence plant response; conditions: Postemergence
Outline: (§1)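 Seeds sown in loam–sand blend got preemergence sprays of test chemicals in a non-phytotoxic solvent with surfactant; postemergence sprays went on plants at 1- to 4-leaf stage (2 to 18 cm) in peat/vermiculite medium. After 13 to 15 days in greenhouse, visual injury versus controls scored 0 (no effect) to 100 (complete control).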

[2] = tested on: johnsongrass (Sorghum halepense); test: Test D pre-/postemergence plant response; conditions: Postemergence; for Johnsongrass plant response rating: 31 g ai/ha, scale 0 to 100 (0 no effect, 100 complete control); for Plant response rating, Johnsongrass: scale 0 to 100, 0 no effect, 100 complete control
Outline: as §1

[3] = tested on: waterhemp (common waterhemp, Amaranthus rudis); test: Test D pre-/postemergence plant response; conditions: Postemergence
Outline: as §1

[4] = tested on: morningglory (Ipomoea coccinea); test: Test D pre-/postemergence plant response; conditions: Postemergence
Outline: as §1

[5] = tested on: lambsquarters (Chenopodium album); test: Test D pre-/postemergence plant response; conditions: Postemergence
Outline: as §1

[6] = tested on: velvetleaf (Abutilon theophrasti); test: Test D pre-/postemergence plant response; conditions: Postemergence
Outline: as §1

[7] = tested on: soybean (Glycine max); test: Test D pre-/postemergence plant response; conditions: Postemergence
Outline: as §1

[8] = tested on: wheat (Triticum aestivum); test: Test B pre-/postemergence plant response
Outline: (§2)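 Greenhouse pots, loam/sand soil; compound formulated with surfactant in non-phytotoxic solvent. Preemergence soil spray and postemergence spray at 1–2 leaf stage run simultaneously. Visual injury, 0–100, about 10 days post-treatment.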

[9] = tested on: corn (Zea mays); test: Test B pre-/postemergence plant response
Outline: as §2

[10] = tested on: giant foxtail (Setaria faberii); test: Test B pre-/postemergence plant response
Outline: as §2

[11] = tested on: barnyardgrass (Echinochloa crus-galli); test: Test B pre-/postemergence plant response
Outline: as §2

[12] = tested on: pigweed (Amaranthus retroflexus); test: Test B pre-/postemergence plant response
Outline: as §2

[13] = tested on: barnyardgrass (Echinochloa crus-galli); test: Test C flooded paddy test plant response; conditions: Flood, 250 g ai/ha; scale of 0 to 100 where 0 is no effect and 100 is complete control; 13 to 15 days
Outline: (§3)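 Plants grown to 2-leaf stage, flooded 3 cm above soil; compounds applied directly into paddy water, depth kept throughout. Visual rating versus controls after 13 to 15 days in greenhouse, 0 (no effect) to 100 (complete control).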

[14] = tested on: small-flower umbrella sedge (Cyperus difformis); test: Test C flooded paddy test plant response; conditions: Flood, 250 g ai/ha; scale of 0 to 100 where 0 is no effect and 100 is complete control; 13 to 15 days
Outline: as §3

[15] = tested on: rice (Oryza sativa); test: Test C flooded paddy test plant response; conditions: Flood, 250 g ai/ha; scale of 0 to 100 where 0 is no effect and 100 is complete control; 13 to 15 days
Outline: as §3

[16] = tested on: ducksalad (Heteranthera limosa); test: Test C flooded paddy test plant response; conditions: Flood, 250 g ai/ha; scale of 0 to 100 where 0 is no effect and 100 is complete control; 13 to 15 days
Outline: as §3

[17] = 31 g ai/ha, scale 0 to 100 (0 no effect, 100 complete control)
[18] = 62 g ai/ha, scale 0 to 100, 0 no effect, 100 complete control
[19] = 125 g ai/ha, scale 0 to 100, 0 no effect, 100 complete control
[20] = 125 g ai/ha, postemergence, 0 to 100 scale, 0 no effect, 100 complete control
[21] = Postemergence, 500 g ai/ha, 0 to 100 scale (0 no effect, 100 complete control)
[22] = Preemergence, 125 g ai/ha, 0 to 100 scale (0 no effect, 100 complete control)
[23] = Preemergence, 500 g ai/ha, 0 to 100 scale where 0 is no effect and 100 is complete control
[24] = Postemergence, 31 g ai/ha, 0 to 100 scale (0 no effect, 100 complete control)
[25] = 31 g ai/ha, Preemergence, 0 to 100 scale where 0 is no effect and 100 is complete control

## FC(F)(F)c1cc(-c2c(Cl)cccc2Oc2ncc(Cl)cn2)no1 [Compound 169]
[1]; [17]
  Wheat plant response rating: 5
[1]; [18]
  Plant response rating, Wheat: 10
[1]; [19]
  Plant response rating, Wheat: 10
[2]
  Johnsongrass plant response rating: 0
[2]; 62 g ai/ha
  Plant response rating, Johnsongrass: 0
[2]; 125 g ai/ha
  Plant response rating, Johnsongrass: 5
[3]; [17]
  Waterhemp plant response rating: 90
[3]; [18]
  Plant response rating, Waterhemp: 90
[3]; [19]
  Plant response rating, Waterhemp: 90
[4]; [17]
  Morningglory plant response rating: 15
[4]; [18]
  Plant response rating, Morningglory: 55
[4]; [19]
  Plant response rating, Morningglory: 65
[5]; [17]
  Lambsquarters plant response rating: 40
[5]; [18]
  Plant response rating, Lambsquarters: 35
[5]; [19]
  Plant response rating, Lambsquarters: 80
[6]; [17]
  Velvetleaf plant response rating: 10
[6]; [18]
  Plant response rating, Velvetleaf: 20
[6]; [19]
  Plant response rating, Velvetleaf: 30
[7]; [17]
  Soybean plant response rating: 5
[7]; [18]
  Plant response rating, Soybean: 15
[7]; [19]
  Plant response rating, Soybean: 25
[8]; [20]
  Plant response rating, Wheat: 0
[8]; [21]
  Plant response rating, Wheat: 0
[9]; [20]
  Plant response rating, Corn: 10
[9]; [21]
  Plant response rating, Corn: 20
[10]; [20]
  Plant response rating, Foxtail, Giant: 30
[10]; [21]
  Plant response rating, Foxtail, Giant: 60
[10]; [22]
  Foxtail, Giant plant response rating: 50
[10]; [23]
  Plant response rating, Foxtail, Giant: 90
[11]; [20]
  Plant response rating, Barnyardgrass: 10
[11]; [21]
  Plant response rating, Barnyardgrass: 30
[11]; [22]
  Barnyardgrass plant response rating: 20
[11]; [23]
  Plant response rating, Barnyardgrass: 30
[12]; [20]
  Plant response rating, Pigweed: 100
[12]; [21]
  Plant response rating, Pigweed: 100
[12]; [22]
  Pigweed plant response rating: 100
[12]; [23]
  Plant response rating, Pigweed: 100
[13]
  Barnyardgrass plant response rating: 0
[14]
  Sedge, Umbrella plant response rating: 0
[15]
  Rice plant response rating: 0
[16]
  Ducksalad plant response rating: 0

## FC(F)(F)c1cc(-c2c(Br)cccc2Oc2ncc(Cl)cn2)no1 [Compound 170]
[1]; [17]
  Wheat plant response rating: 20
[1]; [18]
  Plant response rating, Wheat: 10
[1]; [19]
  Plant response rating, Wheat: 15
[2]
  Johnsongrass plant response rating: 0
[2]; 62 g ai/ha
  Plant response rating, Johnsongrass: 0
[2]; 125 g ai/ha
  Plant response rating, Johnsongrass: 5
[3]; [17]
  Waterhemp plant response rating: 80
[3]; [18]
  Plant response rating, Waterhemp: 100
[3]; [19]
  Plant response rating, Waterhemp: 85
[4]; [17]
  Morningglory plant response rating: 30
[4]; [18]
  Plant response rating, Morningglory: 70
[4]; [19]
  Plant response rating, Morningglory: 98
[5]; [17]
  Lambsquarters plant response rating: 40
[5]; [18]
  Plant response rating, Lambsquarters: 40
[5]; [19]
  Plant response rating, Lambsquarters: 80
[6]; [17]
  Velvetleaf plant response rating: 5
[6]; [18]
  Plant response rating, Velvetleaf: 25
[6]; [19]
  Plant response rating, Velvetleaf: 25
[7]; [17]
  Soybean plant response rating: 10
[7]; [18]
  Plant response rating, Soybean: 10
[7]; [19]
  Plant response rating, Soybean: 35
[8]; [20]
  Plant response rating, Wheat: 0
[8]; [21]
  Plant response rating, Wheat: 30
[9]; [20]
  Plant response rating, Corn: 20
[9]; [21]
  Plant response rating, Corn: 20
[10]; [20]
  Plant response rating, Foxtail, Giant: 30
[10]; [21]
  Plant response rating, Foxtail, Giant: 50
[10]; [22]
  Foxtail, Giant plant response rating: 60
[10]; [23]
  Plant response rating, Foxtail, Giant: 90
[11]; [20]
  Plant response rating, Barnyardgrass: 0
[11]; [21]
  Plant response rating, Barnyardgrass: 20
[11]; [22]
  Barnyardgrass plant response rating: 0
[11]; [23]
  Plant response rating, Barnyardgrass: 20
[12]; [20]
  Plant response rating, Pigweed: 100
[12]; [21]
  Plant response rating, Pigweed: 100
[12]; [22]
  Pigweed plant response rating: 100
[12]; [23]
  Plant response rating, Pigweed: 100
[13]
  Barnyardgrass plant response rating: 0
[14]
  Sedge, Umbrella plant response rating: 0
[15]
  Rice plant response rating: 0
[16]
  Ducksalad plant response rating: 0

## CC(F)(F)c1cc(-c2ccccc2Oc2ncc(Cl)cn2)on1 [Compound 178]
[1]; 16 g ai/ha
  Plant response rating (scale 0 to 100), Wheat: 0
[1]; [17]
  Wheat plant response rating: 5
[1]; [18]
  Wheat plant response rating: 5
[1]; [19]
  Plant response rating, Wheat: 10
[2]; 16 g ai/ha
  Plant response rating (scale 0 to 100), Johnsongrass: 10
[2]
  Johnsongrass plant response rating: 10
[2]; 62 g ai/ha
  Plant response rating, Johnsongrass: 15
[2]; 125 g ai/ha
  Plant response rating, Johnsongrass: 10
[3]; 16 g ai/ha
  Plant response rating (scale 0 to 100), Waterhemp: 70
[3]; [17]
  Waterhemp plant response rating: 80
[3]; [18]
  Waterhemp plant response rating: 85
[3]; [19]
  Plant response rating, Waterhemp: 90
[4]; 16 g ai/ha
  Plant response rating (scale 0 to 100), Morningglory: 70
[4]; [17]
  Morningglory plant response rating: 100
[4]; [18]
  Morningglory plant response rating: 100
[4]; [19]
  Plant response rating, Morningglory: 90
[5]; 16 g ai/ha
  Plant response rating (scale 0 to 100), Lambsquarters: 25
[5]; [17]
  Lambsquarters plant response rating: 70
[5]; [18]
  Lambsquarters plant response rating: 75
[5]; [19]
  Plant response rating, Lambsquarters: 90
[6]; 16 g ai/ha
  Plant response rating (scale 0 to 100), Velvetleaf: 60
[6]; [17]
  Velvetleaf plant response rating: 40
[6]; [18]
  Velvetleaf plant response rating: 60
[6]; [19]
  Plant response rating, Velvetleaf: 75
[7]; 16 g ai/ha
  Plant response rating (scale 0 to 100), Soybean: 15
[7]; [17]
  Soybean plant response rating: 35
[7]; [18]
  Soybean plant response rating: 35
[7]; [19]
  Plant response rating, Soybean: 45
[8]; [20]
  Plant response rating, Wheat: 10
[8]; [24]
  Plant response rating, Wheat: 0
[9]; [20]
  Plant response rating, Corn: 20
[9]; [24]
  Plant response rating, Corn: 0
[10]; [25]
  Plant response rating, Foxtail, Giant: 60
[10]; [20]
  Plant response rating, Foxtail, Giant: 60
[10]; [24]
  Plant response rating, Foxtail, Giant: 10
[10]; [22]
  Foxtail, Giant plant response rating: 90
[11]; [25]
  Plant response rating, Barnyardgrass: 20
[11]; [20]
  Plant response rating, Barnyardgrass: 40
[11]; [24]
  Plant response rating, Barnyardgrass: 0
[11]; [22]
  Barnyardgrass plant response rating: 70
[12]; [25]
  Plant response rating, Pigweed: 90
[12]; [20]
  Plant response rating, Pigweed: 100
[12]; [24]
  Plant response rating, Pigweed: 100
[12]; [22]
  Pigweed plant response rating: 100
[13]
  Barnyardgrass plant response rating: 40
[14]
  Sedge, Umbrella plant response rating: 85
[15]
  Rice plant response rating: 0
[16]
  Ducksalad plant response rating: 90
